US7728128B2, “Dibenzo[c,h][1,5]naphthyridines and their use as DNA probes” (Institut National de la Sante et de la Recherche Medicate …, priority 2006, dated 2010)

What was measured:
plasmid DNA = assay: fluorescence of free molecules before and after addition of plasmid DNA; type: physicochemical; set-up: Fluorescence maxima free dye / Fluorescence maxima DNA bound dye: unit not given beside the values
Method: (§1) Plasmid dsDNA was purified using a Qiagen Maxiprep kit and used in the supercoiled form for absorption and fluorescence studies. E. coli total RNA was bought from Ambion, dA/dT and dG/dC homopolymers were purchased from Amersham Biosciences. Calf thymus (CT) high-molecular weight DNA and Hoechst 33258 were obtained from Sigma-Aldrich. Ethidium bromide was purchased from Amresco.
(§2) Spectrometry and fluorimetry were performed using a SpectraMax384 (Molecular Devices) and a Luminescence Spectrometer LS50B (Perkin Elmer). Fluorescence emission of compound I in complex with DNA and RNA was measured in 50 mM Na phosphate buffer, pH 7.2 at room temperature. Before use, total E. coli RNA was heated to 100° C. for 1 min and immediately transferred on ice for 5 min before mixing with compound I solution. All measurements were carried out at room temperature (20-23° C.) in solutions protected from light and incubated for ˜10-15 min after dilution. The units of b/dye and bp/dye are defined as moles of RNA bases or DNA base pairs per mole of dye. Quantum yield was measured using quinine sulphate as standard as described in (Iupac Commission on Photochemistry, EPA Newsletter of November 1986, 21-29) using FLUOROMAX-3 Spex Spectrofluorometer (HORIBA) and UVIKON XL Spectrophotometer (SECOMAM).
Although compound I also stains mitotic chromosomes (FIG. 1D), theoretically it was possible that it binds specifically to DNA-associated proteins (for example histones) rather than to nucleic acids. To resolve this issue, the absorption and emission spectra of free compound I before and after addition of dsDNA were recorded. […] Molar extinction coefficient (EC) of free compound I at 391 nm was measured at 10,800 cm^−1 M^−1. In the presence of ds plasmid DNA the absorption peaks of compound I at 373 and 391 nm decreased, and a new peak appears with a maximum at 435 nm (FIG. 1E). An overlay of the absorption spectra in complex with dsDNA at different bp per dye ratios gives a single isosbestic point at 398 nm. Free compound I fluoresces around 438 nm (the exact position of the peak depends on the excitation wavelength). […] At the same time, a new peak evolves with a maximum around 484 nm (FIG. 1F). The exact maximum of fluorescence of compound I/DNA complexes varies insignificantly as a function of the dye/bp ratio and/or base pairs composition of the nucleic acids. […] The quantum yield for compound I (excited at 435 nm) at 5 μM in 50 mM Na-phosphate, pH 7.2, was determined to be 2.7% for free dye and 13.8% in admixture with 50 μM CT DNA.
To get a further insight into how the structural properties of compound I contribute to its binding to DNA, the inventors analysed fourteen structural analogues present in the compound library. Although several of these compounds are fluorescent in vivo, this property went undetected in the initial screen most likely due to the latency period before the appearance of the signal (see below). To evaluate the activity of compound I-like molecules three tests were used: (1) in vivo, the inventors incubated human fibroblasts in the presence of the molecules and scored nuclear fluorescence in the microscope; (2 and 3) in vitro, the inventors looked at the absorption and fluorescence of free molecules before and after addition of plasmid DNA. […] With the exception of compound I and analogues 8 and 12, accurate in vitro measurement of the fluorescence intensities was impossible because the emission peaks for the free molecules were too close to that for the DNA-bound dye. This affected the height of the dye/DNA peaks.

[1] = test system: ds plasmid DNA or heat-denatured E. coli RNA; assay: fluorescence titration with dsDNA versus RNA (selectivity); type: binding; settings: for emission strength with DNA relative to RNA: 50 μM DNA or RNA
Method: as §1, §2
A number of known fluorescent dyes bind preferentially to dsDNA, while others, like the SYTO dyes, bind similarly well to dsDNA, ssDNA and RNA (Haugland, R. P. et al., supra). Knowing these properties is important to the design of experiments where one or another (or several) type(s) of nucleic acids may be present. To investigate the selectivity of compound I, the inventors have compared fluorescence intensities at 484 nm of the dye incubated with ds plasmid DNA or heat-denatured E. coli RNA. […] At higher dye/b or dye/bp ratio, the difference was smaller (1.8-fold at dye/b(bp) ratio 0.2), meaning that elevated amounts of dye could saturate both types of nucleic acids. The inventors then performed the experiment in the opposite sense, i.e. titrating a fixed amount of compound I at 1 μM with increasing amounts of DNA and RNA.

stability in DMSO = type: physicochemical
Method: Stability of compound I: When stored in the dark in anhydrous DMSO at −25° C., compound I is stable for periods up to 3 years (LC-MS).

human histone 1 (H1) = assay: titration of plasmid DNA with dye in absence or presence of histone 1; type: biochemical
[2] = test system: primary human fibroblasts; assay: nuclear fluorescence compared with cyclin A immunofluorescence (DNA quantification); type: cell-based; settings: methanol-fixed cells
Source text: Such a double staining carried the risk of a possible competition for binding sites and/or unpredictable effects on fluorescence. Therefore, the inventors decided to compare the integrated total fluorescence of compound I-stained nuclei in fixed cells with a known cell cycle protein marker. The inventors fixed primary human fibroblasts with methanol, performed indirect immunofluorescence with anti-cyclin A antibodies, followed by Alexa 568-labelled secondary antibodies and counterstained nuclei with compound I. Cyclin A accumulates in cells beginning at the S phase and throughout the G2 cell cycle phase, and unlike cyclin B, is practically all nuclear (rev. in Pines, J. et al., 1992, Ciba Found Symp, 170, 187-196; discussion 196-204.). […] Moreover, the inventors observed a direct correlation of the compound I fluorescence with that of cyclin A in cyclin A-positive cells (FIG. 6B). […] This correlates well with 2N and 4N DNA content expected to be found in G1 and G2 cells, respectively.

emission maximum of new peak upon DNA binding (plasmid DNA; DNA-bound): around 484 nm
hypsochromic shift of the 438 nm emission peak upon DNA binding (plasmid DNA; DNA-bound): 426 nm
Fluorescence maxima DNA bound dye (plasmid DNA; after addition of plasmid DNA): 484
emission peak of free dye (plasmid DNA; free compound): around 438 nm
Fluorescence maxima free dye (plasmid DNA; free molecule, before addition of plasmid DNA): 438
emission maximum (plasmid DNA; plasmid DNA at bp/dye ratio 40): 472 nm
stability, period stable (stability in DMSO; DMSO at 4° C. in the dark): stable for at least one year
stability, period stable (stability in DMSO; DMSO solution, ambient temperature, dark): at least 48 hours
stability, period stable (stability in DMSO; anhydrous DMSO at −25° C., dark (LC-MS)): up to 3 years
SMILES: COc1ccc2c(c1)c(C)nc1c3ccc(OC)cc3c(NCCCN(C)C)nc21 [Compound I, N′-(2,8-dimethoxy-12-methyl-dibenzo[c,h][1,5]naphthyridin-6-yl)-N,N-dimethyl-propane-1,3-diamine]
saturation of fixed amount of dye by RNA (not saturated) ([1]; 1 μM dye): > 250 b/dye
saturation of fixed amount of dye by dsDNA ([1]; 1 μM dye): ~30 bp/dye
fluorescence with dsDNA relative to RNA ([1]; 1 μM dye titrated with DNA and RNA, same b(bp)/dye ratios): 2.5-3.6
emission strength with DNA relative to RNA ([1]; dye/b(bp) ratio 0.2): 1.8 fold
emission strength with DNA relative to RNA ([1]; low dye/bp and dye/b ratios, 484 nm): 6 fold
effect of H1 on dye/DNA fluorescence (human histone 1 (H1); 1 μM plasmid DNA, 1 μM H1, emission 484 nm, excitation 435 nm): H1 significantly affected the fluorescence
effect of H1 on free dye fluorescence (human histone 1 (H1); excited at 391 nm): not quenched by H1
dye fluorescence of strongly cyclin A-positive nuclei relative to cyclin A-negative nuclei [2]: approximately twice as much
